EP0028716B1, “Motility increasing peptides and their use” (HOECHST AKTIENGESELLSCHAFT, priority 1979, dated 1986)

How the values were obtained:
[1] = test system: Motorik des Magen-Darmtrakts und der ableitenden Harnwege; assay: Stimulation of the motility of the gastrointestinal tract and the efferent urinary tract; format: in vivo, Hund; settings: parent compound compared with analogues varied in positions A-D
Protocol: Die erfindungsgemässen Peptide stimulieren die Motorik des Magen-Darmtrakts und der ableitenden Harnwege beim Hund und beim Menschen. Sie steigern den Ruhetonus und die segmentale Kontraktionsaktivität des Darmes und fördern dadurch sekundär auch die Wasserresorption aus dem Darmlumen (lleum).
Die erfindungsgemässen Peptide wirken intravenös bereits in einer Dosierung von 10 ng/kg und können unbedenklich auch in höherer Dosierung angewandt werden. […] Das parasympathomimetisch wirkende Carbaminoylcholin benötigt für die gleiche Wirkung etwa eine 10 fache Dosierung. So zählen die erfindungsgemässen Peptide zu den stärksten Effektoren der Motorik des Magen-Darmtrakts und der ableitenden Harnwege. Ihre morphinähnliche Wirkung ist zwar bekannt, doch überschreiten bei der geringen erforderlichen Dosierung weder nach intravenöser, subcutaner noch intranasaler Anwendung die wirksamen Dosen die Blut-Hirn-Schranke. Sie üben deshalb in der für den erfindungsgemässen Zweck erforderlichen Menge keine Wirkungen im Zentralnervensystem aus.

[2] = test system: Motorik des Magen-Darmtrakts und der ableitenden Harnwege; assay: as above; format: in vivo, Hund; settings: dose needed relative to the peptides of the invention

Compound | Wirkung (motility stimulation, in words) [1] | höhere Dosierung für ähnliche / gleiche Wirkung [2] [fach]
Enkephalin | sehr schwach wirksamen | 
C[N+](C)(C)CCOC(N)=O [Carbaminoylcholin] |  | ~10
